Legend:
[1] = compound: CS(=O)(=O)N1CCN(Cc2cc3nc(-c4cccc5[nH]ncc45)nc(N4CCOCC4)c3s2)CC1 [Pictilisib] + CC(=O)c1c(C)c2cnc(Nc3ccc(N4CCNCC4)cn3)nc2n(C2CCCC2)c1=O [Palbociclib] (partner 0.5 µM); assay: relative viability (nuclei count vs DMSO), 5 days (fraction); higher = more cells survive
Method in brief: (§1)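 After 5 days of treatment, lung cancer cells in 1536-well plates were fixed and stained in a single step (final 0.05% Triton X-100, 1% formaldehyde, 1 ug/ml Hoechst) and their nuclei counted on 4× images. Treatment had been applied by pin tool the day after seeding as one drug alone or as a fixed anchor-drug dose with five library-drug doses (not always all listed) in √10 steps. Relative viability is the nuclei count of treated wells divided by that of vehicle wells, and values are medians of duplicate plates.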

[2] = compound: NC1(c2ccc(-c3nc4ccn5c(=O)[nH]nc5c4cc3-c3ccccc3)cc2)CCC1 [MK-2206] + NC(=O)Nc1cc(-c2cccc(F)c2)sc1C(=O)N[C@H]1CCCNC1 [AZD7762] (partner 0.2 µM); assay: as above
Method in brief: as §1

Row | Cell Line | relative viability ([1]; first compound 0.02 µM) | relative viability ([1]; first compound 0.06325 µM) | relative viability ([1]; first compound 0.6325 µM) | relative viability ([1]; first compound 2 µM) | relative viability ([2]; first compound 0.01 µM) | relative viability ([2]; first compound 0.03162 µM) | relative viability ([2]; first compound 0.3162 µM) | relative viability ([2]; first compound 1 µM)
1 | HOP-62 | 0.526 | 0.423 | 0.399 | 0.287 | 0.734 | 0.336 | 0.437 | 0.71
2 | LC-2-ad | 0.486 | 0.532 | 0.298 | 0.265 | 0.815 | 0.868 | 0.889 | 0.782
3 | SW 900 | 0.543 | 0.58 | 0.358 | 0.252 | 0.531 | – | 0.591 | 0.728
4 | NCI-H322M | 0.496 | 0.495 | 0.448 | 0.415 | 0.58 | 0.576 | 0.563 | 0.516
5 | SK-LU-1 | 0.401 | 0.382 | 0.307 | 0.31 | – | – | – | –
6 | NCI-H1734 | 0.303 | 0.338 | 0.281 | 0.192 | 0.576 | 0.244 | 0.471 | 0.399
7 | HCC-44 | 1.02 | 1.01 | 0.955 | 0.977 | 0.961 | 0.98 | 1.04 | 1.02
8 | NCI-H1703 | – | – | – | – | 0.14 | 0.105 | 0.112 | 0.112
9 | NCI-H2170 | 0.351 | 0.375 | 0.266 | 0.165 | 0.874 | 0.765 | 0.812 | 0.837
10 | NCI-H1395 | 0.657 | 0.696 | 0.515 | 0.412 | 0.407 | 0.369 | 0.388 | 0.351
11 | NCI-H1355 | 0.405 | 0.356 | 0.293 | 0.217 | 0.664 | 0.557 | 0.681 | 0.6
12 | NCI-H1650 | 0.381 | 0.334 | 0.223 | 0.193 | – | – | – | –
13 | NCI-H1666 | 0.606 | 0.713 | 0.668 | 0.607 | 0.808 | 0.858 | 0.962 | 0.806
14 | HCC-78 | 0.566 | 0.481 | 0.403 | 0.361 | 0.66 | 0.608 | 0.624 | 0.538
15 | H3255 | 0.314 | 0.375 | 0.297 | 0.292 | 0.865 | 0.883 | 0.903 | 0.829
16 | NCI-H23 | 0.505 | 0.439 | 0.351 | 0.186 | 0.333 | 0.192 | 0.188 | 0.229
17 | NCI-H1944 | 0.322 | 0.235 | 0.226 | 0.183 | 0.539 | 0.254 | 0.472 | 0.5
18 | NCI-H1651 | 0.518 | 0.499 | 0.496 | 0.378 | 0.506 | 0.367 | 0.466 | 0.438
19 | COR-L 105 | 0.429 | 0.477 | 0.423 | 0.399 | – | – | – | –
20 | RERF-LC-KJ | 1.02 | 1.15 | 0.815 | 0.711 | 0.915 | 1.15 | 0.84 | 1.01
21 | NCI-H1793 | 0.25 | 0.234 | 0.199 | 0.183 | 0.679 | 0.232 | 0.243 | 0.251
22 | CAL-12T | 0.385 | 0.604 | 0.457 | 0.167 | 0.617 | 0.455 | 0.716 | 0.664
23 | NCI-H1993 | 0.573 | 0.622 | 0.497 | 0.37 | 0.804 | 0.864 | 0.483 | 0.475
24 | LXF-289 | 0.584 | 0.588 | 0.621 | 0.398 | 1.06 | 1.01 | 1.12 | 1.15
25 | NCI-H1792 | 0.62 | 0.693 | 0.512 | 0.34 | 0.613 | 0.702 | 0.529 | 0.293

Row | Cell Line | relative viability ([1]; first compound 0.02 µM) | relative viability ([1]; first compound 0.06325 µM) | relative viability ([1]; first compound 0.6325 µM) | relative viability ([1]; first compound 2 µM) | relative viability ([2]; first compound 0.01 µM) | relative viability ([2]; first compound 0.03162 µM) | relative viability ([2]; first compound 0.3162 µM) | relative viability ([2]; first compound 1 µM)
26 | LU99A | 0.426 | 0.288 | 0.316 | 0.177 | 0.376 | 0.169 | 0.332 | 0.362
27 | SW 1573 | 0.417 | 0.345 | 0.207 | 0.191 | – | – | – | –
28 | COR-L23 | 0.335 | 0.349 | 0.273 | 0.208 | – | – | – | –
29 | NCI-H1755 | 0.447 | 0.417 | 0.458 | 0.323 | 0.508 | 0.328 | 0.458 | 0.432
30 | LOU-NH91 | 0.524 | 0.546 | 0.563 | 0.514 | 0.8 | 0.751 | 0.705 | 0.605
31 | EMC-BAC-2 | 0.502 | 0.498 | 0.401 | 0.337 | 1.06 | 1.17 | 1.02 | 0.852
32 | ChaGo-K-1 | 0.942 | 0.954 | 0.844 | 0.72 | 0.875 | 0.796 | 0.858 | 0.93
33 | NCI-H2023 | 0.339 | 0.33 | 0.161 | 0.148 | – | – | – | –
34 | EKVX | 0.378 | 0.348 | 0.348 | 0.184 | 0.738 | 0.886 | 0.751 | 0.704
35 | NCI-H2085 | 0.465 | 0.462 | 0.362 | 0.267 | 0.85 | 0.954 | 0.918 | 0.769
36 | NCI-H3122 | 0.181 | 0.194 | 0.176 | 0.139 | 0.936 | 1.04 | 0.979 | 0.91
37 | HCC-827 | 0.517 | 0.415 | 0.234 | 0.188 | 0.325 | 0.184 | 0.227 | 0.186
38 | HARA | 0.305 | 0.269 | 0.187 | 0.161 | 0.0277 | 0.264 | 0.179 | 0.4
39 | NCI-H441 | 0.216 | 0.192 | 0.152 | 0.148 | 1.27 | 0.941 | 1.25 | 0.869
40 | NCI-H2342 | 0.515 | 0.507 | 0.444 | 0.403 | 0.527 | 0.478 | 0.423 | 0.376
41 | SK-MES-1 | 0.326 | 0.302 | 0.346 | 0.262 | – | – | – | –
42 | NCI-H1648 | 0.248 | 0.236 | 0.256 | 0.216 | 0.657 | 0.481 | 0.797 | 0.855
43 | HCC-15 | 0.682 | 0.704 | 0.678 | 0.475 | 1.01 | 1.24 | 1.24 | 1.23
44 | ABC-1 | 0.683 | 0.583 | 0.469 | 0.416 | 0.795 | 0.787 | 0.85 | 0.814
45 | EPLC-272H | 0.348 | 0.298 | 0.317 | 0.243 | 0.23 | 0.185 | 0.202 | 0.175
46 | NCI-H2009 | 0.149 | 0.175 | 0.165 | 0.125 | – | – | – | –
47 | NCI-H661 | 0.446 | 0.384 | 0.347 | 0.299 | – | – | – | –
48 | NCI-H520 | 0.217 | 0.234 | 0.144 | 0.125 | – | – | – | –
49 | NCI-H2405 | 0.579 | 0.536 | 0.474 | 0.374 | 0.824 | 0.769 | 0.838 | 0.534
50 | LCLC-97TM1 | 0.206 | 0.269 | 0.125 | 0.0838 | 0.294 | 0.12 | 0.285 | 0.333

Row | Cell Line | relative viability ([1]; first compound 0.02 µM) | relative viability ([1]; first compound 0.06325 µM) | relative viability ([1]; first compound 0.6325 µM) | relative viability ([1]; first compound 2 µM) | relative viability ([2]; first compound 0.01 µM) | relative viability ([2]; first compound 0.03162 µM) | relative viability ([2]; first compound 0.3162 µM) | relative viability ([2]; first compound 1 µM)
51 | NCI-H727 | 0.595 | 0.65 | 0.541 | 0.496 | 0.563 | 0.485 | 0.58 | 0.575
52 | NCI-H522 | 1.07 | 0.785 | 0.833 | 0.692 | 0.85 | 0.763 | 0.993 | 0.762
53 | NCI-H2228 | 0.64 | 1.04 | 0.492 | 0.282 | – | – | – | –
54 | LK-2 | 0.588 | 0.673 | 0.354 | 0.259 | 0.325 | 0.312 | 0.259 | 0.182
55 | PC-3 [JPC-3] | 0.539 | 0.494 | 0.534 | 0.456 | 0.881 | 0.849 | 0.774 | 0.334
56 | NCI-H596 | – | – | – | – | 1.16 | 1.06 | 1.05 | 1.01
57 | NCI-H460 | 0.185 | 0.161 | 0.111 | 0.0339 | 0.692 | 0.366 | 0.612 | 0.644
58 | NCI-H647 | 0.365 | 0.419 | 0.254 | 0.144 | 0.46 | 0.356 | 0.521 | 0.473
59 | NCI-H838 | 0.191 | 0.206 | 0.174 | 0.124 | 0.935 | 0.872 | 0.969 | 0.906
60 | PC-14 | 0.488 | 0.564 | 0.507 | 0.334 | 0.326 | 0.243 | 0.329 | 0.366
61 | NCI-H358 | 0.116 | 0.165 | 0.121 | 0.115 | 0.628 | 0.423 | 0.552 | 0.609
62 | NCI-H1915 | 0.524 | 0.542 | 0.5 | 0.471 | 0.74 | 0.573 | 0.735 | 0.576
63 | 201T | 0.332 | 0.377 | 0.332 | 0.284 | 0.663 | 0.431 | 0.649 | 0.599
64 | NCI-H1437 | 0.309 | 0.337 | 0.401 | 0.216 | 1.18 | 1.11 | 1.16 | 1.09
65 | A-427 | 0.512 | 0.511 | 0.504 | 0.508 | 0.751 | 0.596 | 0.598 | 0.601
66 | HCC-366 | 0.434 | 0.305 | 0.133 | 0.0473 | 0.26 | 0.204 | 0.244 | 0.18
67 | BEN | 0.442 | 0.488 | 0.443 | 0.439 | 0.729 | 0.621 | 0.713 | 0.601
68 | NCI-H2347 | 0.448 | 0.398 | 0.433 | 0.363 | 0.778 | 0.652 | 0.649 | 0.636
69 | LCLC-103H | 0.525 | 0.485 | 0.44 | 0.351 | 0.751 | 0.818 | 0.765 | 0.712
70 | NCI-H650 | 0.323 | 0.308 | 0.271 | 0.265 | 1 | 0.706 | 1.13 | 1
71 | NCI-H1975 | 0.553 | 0.544 | 0.342 | 0.143 | 0.745 | 0.748 | 0.595 | 0.582
72 | NCI-H2126 | 0.357 | 0.317 | 0.32 | 0.341 | 0.971 | 0.96 | 0.94 | 0.996
73 | NCI-H2087 | 0.199 | 0.255 | 0.19 | 0.162 | 0.809 | 1.34 | 1.4 | 1.33

— the supplement of paper PMC10307832
